What was measured:
[1] = Plasma stability (Rat); assay type: in vitro ADME; conditions: after 60 minutes
Procedure: (§1) Plasma stability of disclosed compounds was investigated. The following table indicates the percent of compound remaining after 60 minutes.

[2] = Microsomal stability (Human); assay type: in vitro ADME; conditions: after 60 minutes
Procedure: (§2) Microsomal stability of disclosed compounds was investigated. The following table indicates the percent of compound remaining after 60 minutes.

[3] = IV pharmacokinetics in Sprague Dawley rats; assay type: in vivo; conditions: Sprague-Dawley, rat, in vivo, iv, 2 mg/kg, normal saline; for Cmax: read-out: Cmax; for Vd: read-out: Vss
Procedure: Sprague Dawley rats were dosed intravenously using a normal saline formulation containing 2 mg/kg of the compounds identified in the below table. The table below summarizes the results of the IV pharmacokinetics.

[4] = target: T1, NMDAR2A (Homo sapiens, UniProt Q12879); experiment: NMDAR agonist assay, [3H]MK-801 binding, NMDAR2A expressing HEK cell membranes; assay type: biochemical; conditions: 50 μM glutamate; for EC50: read-out: NMDAR2A B: log EC50 (converted); for Emax: 0.25 h, read-out: NMDAR2A A: % maximal [3H]MK-801 binding relative to 1 mM glycine; for Emax / NMDAR2A A: % maximal [3H]MK-801 binding relative to 1 mM glycine: relative to 1 mM glycine
T1 construct: expressed in transfected cells; host or cells: HEK cells (membrane extract)
Procedure: (§3) Assays were conducted as described by Moskal et al., “GLYX-13: a monoclonal antibody-derived peptide that acts as an N-methyl-D-aspartate receptor modulator,” Neuropharmacology, 49, 1077-87, 2005. These studies were designed to determine if the test compounds act to facilitate NMDAR activation in NMDAR2A, NMDAR2B, NMDAR2C or NMDAR2D expressing HEK cell membranes as measured by increases in [^3H]MK-801 binding.
(§4) In the assay, 300 μg of NMDAR expressing HEK cell membrane extract protein was preincubated for 15 minutes at […] in the presence of saturating concentrations of glutamate (50 μM) and varying concentrations of test compound (1×10^−15M-1×10^−7M), or 1 mM glycine. Following the addition of 0.3 μCi of [3H]MK-801 (22.5 Ci/mmol), reactions were again incubated for 15 minutes at 25° C. (nonequilibrium conditions). Bound and free [3H]MK-801 were separated via rapid filtration using a Brandel apparatus.
(§5) In analyzing the data, the DPM (disintegrations per minute) of [3H]MK-801 remaining on the filter were measured for each concentration of test compound or for 1 mM glycine. The DPM values for each concentration of a ligand (N=2) were averaged. The baseline value was determined from the best fit curve of the DPM values modeled using the GraphPad program and the log(agonist) vs. response (three parameters) algorithm was then subtracted from all points in the dataset. The % maximal [^3H]MK-801 binding was then calculated relative to that of 1 mM glycine: all baseline subtracted DPM values were divided by the average value for 1 mM glycine. The EC50 and % maximal activity were then obtained from the best fit curve of the % maximal [3H]MK-801 binding data modelled using the GraphPad program and the log(agonist) vs. response (three parameters) algorithm.
(§6) The tables below summarize the results for the wild type […] NMDAR2A, NMDAR2B, NMDAR2C, and NMDAR2D, and whether the compound is not an agonist (−), is an agonist (+), or is a strong agonist (++), where column A is based on the % maximal [3H]MK-801 binding relative to 1 mM glycine (−=0; <100%=+; and >100%=++); and column B is based on log EC50 values (0=−; ≥1×10^−9 M (e.g., −8)=+; and <1×10^−9 M (e.g., −10)=++).

[5] = target: T2, NMDAR2B (Homo sapiens, UniProt Q13224); experiment: NMDAR agonist assay, [3H]MK-801 binding, NMDAR2B expressing HEK cell membranes; assay type: biochemical; conditions: 50 μM glutamate; for EC50: read-out: NMDAR2B B: log EC50 (converted); for Emax / NMDAR2B A: % maximal [3H]MK-801 binding relative to 1 mM glycine: relative to 1 mM glycine; for Emax: read-out: NMDAR2B A: % maximal [3H]MK-801 binding relative to 1 mM glycine
T2 construct: expressed in transfected cells; host or cells: HEK cells (membrane extract)
Procedure: as §3, §4, §5, §6

[6] = Microsomal stability (Rat); assay type: in vitro ADME; conditions: after 60 minutes
Procedure: as §2

[7] = Plasma stability (Human); assay type: in vitro ADME; conditions: after 60 minutes
Procedure: as §1

[8] = Oral pharmacokinetics in Sprague Dawley rats (plasma, brain, CSF); assay type: in vivo; conditions: rat, 10 mg/kg; for Tmax / AUC(0-t) / bioavailability / Cmax: Sprague-Dawley, po, plasma; for Tmax / AUC(0-t) / Cmax / CSF Cmax / Brain Cmax: per os; for Tmax: read-out: Tmax; for bioavailability: per os 10 mg/kg; for Cmax: read-out: Cmax
Procedure: In another experiment, Sprague Dawley rats were dosed per os (oral gavage) using a normal saline formulation containing 10 mg/kg of the compounds identified in the table below. Plasma, brain, and CSF samples were analyzed at various time points over a 24 hour period. The table below summarizes the results of the oral pharmacokinetics, where the first three values (Tmax, Cmax and AUClast) are plasma values.

[9] = system: Sprague Dawley rats; experiment: Porsolt forced swim test; assay type: in vivo; conditions: 1 h post-dose, 0.1 mg/kg
Procedure: A non-clinical in vivo pharmacology study (Porsolt assay) was performed to measure antidepressant-like effects. The study allowed for the evaluation of the effects of each compound on the Porsolt forced swim test as assessed by the rats' response (reduced floating time) during a 5-minute swimming test.
Male 2-3 month old Sprague Dawley rats were used (Harlan, Indianapolis, Ind.). Rats were housed in Lucite cages with aspen wood chip bedding, maintained on a 12:12 light:dark cycle (lights on at 5 AM), and given ad libitum access to Purina lab chow (USA) and tap water throughout the study.
The Porsolt forced swim test adapted for use in rats was performed as described by Burgdorf et al., (The long-lasting antidepressant effects of rapastinel (GLYX-13) are associated with a metaplasticity process in the medial prefrontal cortex and hippocampus. Neuroscience 308:202-211, 2015). Animals were placed in a 46 cm tall×20 cm in diameter clear glass tube filled to 30 cm with tap water (23±1° C.) for 15 min on the first day (habituation) and 5 min on the subsequent test day. Animals were tested 1 h or 24 h post-dosing with the test compounds or vehicle control (0.5% sodium carboxymethyl cellulose in 0.9% sterile saline). A subset of compounds tested at 1 h post-dosing was tested again 1 wk post-dosing. Animals received a 15 min habituation session 1 day before the first 5 min test. Water was changed after every other animal. Animals were videotaped, and floating time as defined as the minimal amount of effort required to keep the animals head above water was scored offline by a blinded experimenter with high inter-rater reliability (Pearson's r >0.9).

T1 sequence (Q12879 23-1464, species assumed, other chains not shown): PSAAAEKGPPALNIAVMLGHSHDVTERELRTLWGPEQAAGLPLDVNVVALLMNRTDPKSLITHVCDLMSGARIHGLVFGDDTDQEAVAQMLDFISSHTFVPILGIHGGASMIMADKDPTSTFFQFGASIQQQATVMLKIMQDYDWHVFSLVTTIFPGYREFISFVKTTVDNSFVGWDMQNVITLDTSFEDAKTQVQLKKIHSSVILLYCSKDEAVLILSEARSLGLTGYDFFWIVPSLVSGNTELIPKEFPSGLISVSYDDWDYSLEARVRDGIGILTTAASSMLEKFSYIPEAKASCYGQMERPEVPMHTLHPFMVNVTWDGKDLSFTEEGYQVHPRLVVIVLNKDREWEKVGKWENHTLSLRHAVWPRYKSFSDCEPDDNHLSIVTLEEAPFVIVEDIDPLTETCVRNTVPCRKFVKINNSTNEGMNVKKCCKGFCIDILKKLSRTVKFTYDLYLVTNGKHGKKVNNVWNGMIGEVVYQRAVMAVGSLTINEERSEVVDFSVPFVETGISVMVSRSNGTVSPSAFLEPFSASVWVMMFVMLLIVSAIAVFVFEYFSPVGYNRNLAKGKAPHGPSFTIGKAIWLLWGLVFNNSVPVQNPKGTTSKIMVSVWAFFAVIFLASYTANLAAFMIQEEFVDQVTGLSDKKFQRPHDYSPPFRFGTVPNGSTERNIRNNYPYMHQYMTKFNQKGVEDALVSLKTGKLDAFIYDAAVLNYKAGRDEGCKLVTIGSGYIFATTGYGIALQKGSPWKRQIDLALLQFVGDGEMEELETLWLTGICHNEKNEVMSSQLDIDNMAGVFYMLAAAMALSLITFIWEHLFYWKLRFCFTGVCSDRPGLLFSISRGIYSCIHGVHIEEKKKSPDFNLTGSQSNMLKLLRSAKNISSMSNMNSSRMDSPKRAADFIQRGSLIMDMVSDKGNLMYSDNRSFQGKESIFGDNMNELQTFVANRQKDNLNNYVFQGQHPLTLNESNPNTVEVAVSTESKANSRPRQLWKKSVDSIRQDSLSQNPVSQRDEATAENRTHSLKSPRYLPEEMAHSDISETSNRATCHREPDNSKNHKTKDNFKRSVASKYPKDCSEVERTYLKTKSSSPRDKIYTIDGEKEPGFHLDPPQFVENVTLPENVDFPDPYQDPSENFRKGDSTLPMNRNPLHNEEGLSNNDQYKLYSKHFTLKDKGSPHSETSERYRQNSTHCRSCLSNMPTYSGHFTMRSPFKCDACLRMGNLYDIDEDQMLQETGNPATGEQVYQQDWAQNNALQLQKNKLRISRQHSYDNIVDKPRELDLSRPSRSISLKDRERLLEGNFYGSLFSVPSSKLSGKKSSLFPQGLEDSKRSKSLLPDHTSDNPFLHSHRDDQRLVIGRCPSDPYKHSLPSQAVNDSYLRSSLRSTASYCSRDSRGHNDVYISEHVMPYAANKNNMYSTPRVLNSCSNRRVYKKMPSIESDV
T2 sequence (Q13224 27-1484, species assumed, other chains not shown): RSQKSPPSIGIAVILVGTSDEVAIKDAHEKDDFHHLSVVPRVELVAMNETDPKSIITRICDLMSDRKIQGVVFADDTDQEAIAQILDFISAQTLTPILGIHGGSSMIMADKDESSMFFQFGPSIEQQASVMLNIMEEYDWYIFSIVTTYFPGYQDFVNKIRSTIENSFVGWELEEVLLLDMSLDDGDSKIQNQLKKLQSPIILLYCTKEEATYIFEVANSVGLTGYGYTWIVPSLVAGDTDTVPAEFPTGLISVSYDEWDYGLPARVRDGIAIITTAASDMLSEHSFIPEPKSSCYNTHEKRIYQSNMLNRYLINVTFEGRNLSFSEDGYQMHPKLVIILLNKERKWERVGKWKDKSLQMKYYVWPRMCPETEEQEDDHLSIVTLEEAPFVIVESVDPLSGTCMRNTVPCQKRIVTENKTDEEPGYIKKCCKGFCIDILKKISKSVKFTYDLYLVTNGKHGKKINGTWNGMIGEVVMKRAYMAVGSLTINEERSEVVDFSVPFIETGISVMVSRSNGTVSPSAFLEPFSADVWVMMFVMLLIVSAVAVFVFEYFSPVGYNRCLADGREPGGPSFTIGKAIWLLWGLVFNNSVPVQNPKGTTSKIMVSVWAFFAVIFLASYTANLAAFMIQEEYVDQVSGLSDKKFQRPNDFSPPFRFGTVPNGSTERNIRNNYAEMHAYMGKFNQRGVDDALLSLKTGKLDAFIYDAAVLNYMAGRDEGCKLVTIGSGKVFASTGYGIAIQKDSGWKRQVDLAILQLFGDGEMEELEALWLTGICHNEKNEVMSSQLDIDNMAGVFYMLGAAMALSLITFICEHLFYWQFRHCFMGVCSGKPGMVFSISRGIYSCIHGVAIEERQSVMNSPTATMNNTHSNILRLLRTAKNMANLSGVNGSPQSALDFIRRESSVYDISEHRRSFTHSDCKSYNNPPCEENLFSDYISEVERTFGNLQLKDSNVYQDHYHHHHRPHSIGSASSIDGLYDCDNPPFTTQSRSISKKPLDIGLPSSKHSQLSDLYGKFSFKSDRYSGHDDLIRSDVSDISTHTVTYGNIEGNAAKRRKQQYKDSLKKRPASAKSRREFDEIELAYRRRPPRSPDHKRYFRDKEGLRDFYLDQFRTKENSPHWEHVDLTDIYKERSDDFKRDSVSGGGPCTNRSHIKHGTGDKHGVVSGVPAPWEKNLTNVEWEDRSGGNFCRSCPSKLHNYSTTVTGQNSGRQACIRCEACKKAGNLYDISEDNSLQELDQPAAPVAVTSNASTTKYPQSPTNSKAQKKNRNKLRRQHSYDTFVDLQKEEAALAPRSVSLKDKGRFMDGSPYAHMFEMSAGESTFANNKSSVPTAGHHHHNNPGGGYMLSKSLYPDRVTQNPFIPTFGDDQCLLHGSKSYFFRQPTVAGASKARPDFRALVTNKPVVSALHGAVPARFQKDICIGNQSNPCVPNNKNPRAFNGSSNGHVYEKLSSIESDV

Structure (SMILES)	Plasma (Rat): percent of compound remaining [1] [%]	Microsomal (Human): percent of compound remaining [2] [%]	AUC(0-t) [3] [ng·h/mL]	clearance [3] [mL/min/kg]	half-life [3] [min]	Cmax [3] [ng/mL]	Vd [3] [L/kg]	EC50 [4] [nM]	Emax [4] [%]	EC50 [5] [nM]	Emax [5] [%]	Microsomal (Rat): percent of compound remaining [6] [%]	Plasma (Human): percent of compound remaining [7] [%]	Tmax [8] [min]	AUC(0-t) [8] [ng·h/mL]	bioavailability [8] [%]	Cmax [8] [ng/mL]	CSF Cmax [8] [ng/mL]	Brain Cmax [8] [ng/mL]	NMDAR2A A: % maximal [3H]MK-801 binding relative to 1 mM glycine [4]	also measured
O=C1NCCCCC12CCCCN2 (single isomer, unassigned) [AZ, 1,8-diazaspiro[5.6]dodecan-7-one]	101	92	15400	2.17	255	17900	0.17	< 1	< 100	< 1	< 100	91	101	60	74300	97	29100	5343.89	8074.7	–	–
O=C1NCCCCC12CCCNC2 (single isomer, unassigned) [CF, 2,8-diazaspiro[5.6]dodecan-7-one]	91	91	1110	29.9	108	1990	2.85	< 1	< 100	< 1	< 100	88	107	120	1830	33	556	51.64	48.22	–	–
CC(=O)N1CCCC12CC=CCNC2=O (single isomer, unassigned) [GG-2, 1-acetyl-1,7-diazaspiro[4.6]undec-9-en-6-one]	101	88	2550	13.1	32.4	3420	0.58	< 1	–	< 1	–	106	99	15	19600	100	9200	2271.94	1689.69	–	% reduction in float time [9]: 4%; Significance vs. vehicle [9]: No
CC(C)C(=O)N1CCC2(CCCN2C(=O)C(C)C)C1=O (single isomer, unassigned) [GU-1, 1,1′-(6-oxo-1,7-diazaspiro[4.4]nonane-1,7-diyl)bis(2-methylpropan-1-one)]	89	96	1140	29.3	10.8	5850	0.36	–	–	< 1	< 100	94	82	15	2100	37	4620	0	0	0%	–

Now from value to molecule, other results behind:

Plasma (Rat): percent of compound remaining [1] [%]	Microsomal (Human): percent of compound remaining [2] [%]	AUC(0-t) [3] [ng·h/mL]	clearance [3] [mL/min/kg]	half-life [3] [min]	Cmax [3] [ng/mL]	Vd [3] [L/kg]	EC50 [4] [nM]	Emax [4] [%]	EC50 [5] [nM]	Emax [5] [%]	Microsomal (Rat): percent of compound remaining [6] [%]	Plasma (Human): percent of compound remaining [7] [%]	Tmax [8] [min]	AUC(0-t) [8] [ng·h/mL]	bioavailability [8] [%]	Cmax [8] [ng/mL]	CSF Cmax [8] [ng/mL]	Brain Cmax [8] [ng/mL]	NMDAR2A A: % maximal [3H]MK-801 binding relative to 1 mM glycine [4]	Structure (SMILES)	also measured
104	114	326	101	19.2	976	2.25	< 1	–	< 1	–	102	99	25.2	150	9	132	205.53	97.39	+ (<100%=+)	CC(C)CN1CCCC12CC=CCNC2=O (single isomer, unassigned) [GI-2, 1-isobutyl-1,7-diazaspiro[4.6]undec-9-en-6-one]	NMDAR2B A: % maximal [3H]MK-801 binding relative to 1 mM glycine [5]: + (<100%=+)
97	94	1290	25.7	106	2310	1.11	< 1	–	< 1	–	102	96	15	5480	85	5390	1400.31	492.96	+ (<100%=+)	NC(=O)CN1CCCC12CC=CCNC2=O (single isomer, unassigned) [GQ-2, 2-(6-oxo-1,7-diazaspiro[4.6]undec-9-en-1-yl)acetamide]	NMDAR2B A: % maximal [3H]MK-801 binding relative to 1 mM glycine [5]: + (<100%=+)
96	72	210	157	39.6	421	6.5	< 1	< 100	< 1	< 100	3	101	34.8	9.16	1	23.3	0	0	–	CN1CC=CCC2(CCCN2Cc2ccccc2)C1=O (single isomer, unassigned) [GT-1, 1-benzyl-7-methyl-1,7-diazaspiro[4.6]undec-9-en-6-one]	–
